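Results reflect a 48-hour exposure of cells in 96-well plates to compound at five concentrations. At the GI50, growth is halved.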 Activity calls are given as the source filed them. Cut-off read from the data, not from the text of the source: active = GI50 up to about 1.1 µM and inactive = higher.
Key:
Test in all cases: inhibition of tumour cell growth, NCI panel, 48 h
[1] = tested on: K562
[2] = tested on: LOX IMVI
[3] = tested on: CCRF-CEM
[4] = tested on: SW-620
[5] = tested on: KM12
[6] = tested on: MCF7
[7] = tested on: HT-29
[8] = tested on: OVCAR-8
[9] = tested on: NCI-H460
[10] = tested on: DMS-114
[11] = tested on: OVCAR-5
[12] = tested on: SN12C
[13] = tested on: SK-MEL-2
[14] = tested on: SNB-19
[15] = tested on: NCI-H23
[16] = tested on: COLO 205
[17] = tested on: OVCAR-3
[18] = tested on: HOP-62
[19] = tested on: HL-60
[20] = tested on: BT-549

C=C(OC1C(C)=C2C(C1OC(=O)CCCCCCC)C(C)(OC(C)=O)CC(OC(=O)CCC)C1(O)C2OC(=O)C1(C)O)/C(C)=C/C (configuration not stated)
GI50 [1]: 0.0125 µM (active) | GI50 [2]: 0.0125 µM (active) | GI50 [3]: 0.0141 µM (active) | GI50 [4]: 0.0125 µM (active) | GI50 [5]: 0.0125 µM (active) | GI50 [6]: 0.0125 µM (active) | GI50 [7]: 0.0125 µM (active) | GI50 [8]: 0.0125 µM (active) | GI50 [9]: 0.0125 µM (active) | GI50 [10]: 0.0125 µM (active) | GI50 [11]: 0.034 µM (active) | GI50 [12]: 0.0125 µM (active) | GI50 [13]: 0.0125 µM (active) | GI50 [14]: 0.0422 µM (active) | GI50 [15]: 0.0125 µM (active)

O=C(c1ccccc1)C(c1ccccc1)C1(O)C(=O)Nc2c(Cl)cc(Cl)cc21 (configuration not stated)
GI50 [16]: 19.1 µM (inactive) | GI50 [1]: 15.5 µM (inactive) | GI50 [17]: 26 µM (inactive) | GI50 [2]: 19.5 µM (inactive) | GI50 [3]: 14 µM (inactive) | GI50 [4]: 14.4 µM (inactive) | GI50 [5]: 23 µM (inactive) | GI50 [18]: > 10 µM (inactive) | GI50 [7]: 23.9 µM (inactive) | GI50 [8]: 16.1 µM (inactive) | GI50 [9]: 28.2 µM (inactive) | GI50 [19]: 12.6 µM (inactive) | GI50 [10]: 16.5 µM (inactive) | GI50 [11]: 17.1 µM (inactive) | GI50 [12]: > 100 µM (inactive) | GI50 [13]: 16.8 µM (inactive) | GI50 [14]: 21.7 µM (inactive) | GI50 [15]: 18 µM (inactive)

NC(=O)c1nnn(Cc2cc(Cl)c(C(=O)c3ccc(Cl)cc3)c(Cl)c2)c1N [CARBOXYAMIDOTRIAZOLE]
GI50 [16]: 27.8 µM (inactive) | GI50 [1]: 8.05 µM (inactive) | GI50 [17]: 12.3 µM (inactive) | GI50 [2]: 22 µM (inactive) | GI50 [3]: 31 µM (inactive) | GI50 [4]: 27.1 µM (inactive) | GI50 [5]: 10.4 µM (inactive) | GI50 [6]: 11.4 µM (inactive) | GI50 [18]: 25.7 µM (inactive) | GI50 [20]: 21.6 µM (inactive) | GI50 [7]: 22.8 µM (inactive) | GI50 [8]: 24.1 µM (inactive) | GI50 [9]: 14.8 µM (inactive) | GI50 [19]: 14.8 µM (inactive) | GI50 [10]: 6.1 µM (inactive) | GI50 [11]: 34.5 µM (inactive) | GI50 [12]: 29.2 µM (inactive) | GI50 [13]: 11.1 µM (inactive) | GI50 [14]: 24.4 µM (inactive) | GI50 [15]: 11.8 µM (inactive)

CN(CCO)c1nc(=O)c2c(n1C1OC(CO)C(O)C(O)C1O)CCCC2 (configuration not stated)
GI50 [16]: > 100 µM (inactive) | GI50 [1]: > 100 µM (inactive) | GI50 [17]: > 100 µM (inactive) | GI50 [2]: > 100 µM (inactive) | GI50 [3]: > 100 µM (inactive) | GI50 [4]: > 100 µM (inactive) | GI50 [5]: > 100 µM (inactive) | GI50 [18]: > 100 µM (inactive) | GI50 [7]: > 100 µM (inactive) | GI50 [8]: > 100 µM (inactive) | GI50 [9]: > 100 µM (inactive) | GI50 [19]: > 100 µM (inactive) | GI50 [10]: > 100 µM (inactive) | GI50 [11]: > 100 µM (inactive) | GI50 [12]: > 100 µM (inactive) | GI50 [13]: > 100 µM (inactive) | GI50 [14]: > 100 µM (inactive) | GI50 [15]: > 100 µM (inactive)

O.O=C([O-])c1ccccc1Nc1ccccc1C(=O)[O-].[Zn+2]
GI50 [16]: > 49.7 µM (inactive) | GI50 [1]: 28.9 µM (inactive) | GI50 [17]: 18.8 µM (inactive) | GI50 [2]: 22 µM (inactive) | GI50 [3]: 24.1 µM (inactive) | GI50 [4]: 23.6 µM (inactive) | GI50 [5]: > 100 µM (inactive) | GI50 [18]: > 43.1 µM (inactive) | GI50 [7]: > 70.6 µM (inactive) | GI50 [8]: 26.9 µM (inactive) | GI50 [9]: > 65.9 µM (inactive) | GI50 [19]: 23.7 µM (inactive) | GI50 [10]: 17.5 µM (inactive) | GI50 [11]: 28.2 µM (inactive) | GI50 [12]: 83.8 µM (inactive) | GI50 [13]: 20.7 µM (inactive) | GI50 [14]: 17.4 µM (inactive) | GI50 [15]: 18.2 µM (inactive)

c1cc(-c2cn3ccsc3n2)ccn1
GI50 [16]: > 61.9 µM (inactive) | GI50 [1]: > 47.2 µM (inactive) | GI50 [17]: > 100 µM (inactive) | GI50 [2]: > 61 µM (inactive) | GI50 [3]: > 41.8 µM (inactive) | GI50 [4]: > 43.1 µM (inactive) | GI50 [5]: > 100 µM (inactive) | GI50 [18]: > 100 µM (inactive) | GI50 [7]: > 100 µM (inactive) | GI50 [8]: > 45.1 µM (inactive) | GI50 [9]: 99.3 µM (inactive) | GI50 [19]: > 44.9 µM (inactive) | GI50 [10]: > 66.5 µM (inactive) | GI50 [11]: > 100 µM (inactive) | GI50 [12]: > 100 µM (inactive) | GI50 [13]: > 100 µM (inactive) | GI50 [14]: > 100 µM (inactive) | GI50 [15]: > 100 µM (inactive)
